Assay results reported in PubChem BioAssay (NCI).
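Method: 48-hour compound exposure of cells in 96-well plates, five concentrations, linear interpolation of endpoints. The concentration for 50% growth inhibition is given as GI50. TGI marks complete inhibition of growth.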

Key:
Test in all cases: NCI anticancer screen, dose series, 48 h
UACC-62 melanoma = test system: UACC-62 melanoma
EKVX NSCLC = test system: EKVX NSCLC
SF-539 CNS = test system: SF-539 CNS
SR leukemia = test system: SR leukemia
OVCAR-5 ovarian = test system: OVCAR-5 ovarian
SK-MEL-5 melanoma = test system: SK-MEL-5 melanoma
HL-60(TB) leukemia = test system: HL-60(TB) leukemia
NCI-H460 lung = test system: NCI-H460 lung
NCI-H226 lung = test system: NCI-H226 lung
COLO 205 colon = test system: COLO 205 colon
T-47D breast = test system: T-47D breast
HCT-15 colon = test system: HCT-15 colon
TK-10 renal = test system: TK-10 renal
BT-549 breast = test system: BT-549 breast
MOLT-4 leukemia = test system: MOLT-4 leukemia
SF-295 CNS = test system: SF-295 CNS
DU-145 prostate = test system: DU-145 prostate
U251 CNS = test system: U251 CNS
HOP-62 NSCLC = test system: HOP-62 NSCLC
NCI-H522 lung = test system: NCI-H522 lung
MDA-MB-435 = test system: MDA-MB-435
MALME-3M melanoma = test system: MALME-3M melanoma
HT29 colon = test system: HT29 colon
KM12 colon = test system: KM12 colon
LOX IMVI melanoma = test system: LOX IMVI melanoma
NCI/ADR-RES ovarian = test system: NCI/ADR-RES ovarian
OVCAR-4 ovarian = test system: OVCAR-4 ovarian
SNB-19 CNS = test system: SNB-19 CNS

CC[C@]1(O)CC2CN(CCc3c([nH]c4ccccc34)C(C(=O)OC)(c3cc4c(cc3OC)N(C=O)[C@H]3[C@@](O)(C(=O)OC)[C@H](OC(C)=O)[C@]5(CC)[C@@H]6C[C@@H]6CN6CC[C@]43[C@@H]65)C2)C1 (stereo not given in full)
GI50 (UACC-62 melanoma): < 3.25 nM | TGI (UACC-62 melanoma): > 21000 nM | GI50 (EKVX NSCLC): < 3.25 nM | TGI (EKVX NSCLC): > 32500 nM | GI50 (SF-539 CNS): < 3.25 nM | TGI (SF-539 CNS): < 3.25 nM | GI50 (SR leukemia): < 3.25 nM | TGI (SR leukemia): 247 nM | GI50 (OVCAR-5 ovarian): < 3.25 nM | TGI (OVCAR-5 ovarian): > 32500 nM | GI50 (SK-MEL-5 melanoma): < 3.25 nM | TGI (SK-MEL-5 melanoma): 11.9 nM | GI50 (HL-60(TB) leukemia): < 3.25 nM | TGI (HL-60(TB) leukemia): < 3.25 nM | GI50 (NCI-H460 lung): < 3.25 nM | TGI (NCI-H460 lung): > 11200 nM | GI50 (NCI-H226 lung): 245 nM | TGI (NCI-H226 lung): > 16300 nM | GI50 (COLO 205 colon): < 3.25 nM | TGI (COLO 205 colon): < 3.25 nM | GI50 (T-47D breast): 228 nM | GI50 (HCT-15 colon): 36.5 nM | TGI (HCT-15 colon): > 32500 nM | GI50 (TK-10 renal): < 3.25 nM | TGI (TK-10 renal): 17500 nM | GI50 (BT-549 breast): < 3.25 nM | TGI (BT-549 breast): 15 nM | GI50 (MOLT-4 leukemia): < 3.25 nM | TGI (MOLT-4 leukemia): 339 nM | GI50 (SF-295 CNS): < 3.25 nM | TGI (SF-295 CNS): 325 nM | GI50 (DU-145 prostate): < 3.25 nM | TGI (DU-145 prostate): < 3.25 nM | GI50 (U251 CNS): < 3.25 nM | TGI (U251 CNS): 146 nM | GI50 (HOP-62 NSCLC): < 3.25 nM | TGI (HOP-62 NSCLC): > 13700 nM | GI50 (NCI-H522 lung): < 3.25 nM | TGI (NCI-H522 lung): < 3.25 nM | GI50 (MDA-MB-435): < 3.25 nM | TGI (MDA-MB-435): < 3.25 nM | GI50 (MALME-3M melanoma): 104 nM | TGI (MALME-3M melanoma): 17900 nM | GI50 (HT29 colon): < 3.25 nM | TGI (HT29 colon): 33 nM | GI50 (KM12 colon): < 3.25 nM | TGI (KM12 colon): 3.86 nM | GI50 (LOX IMVI melanoma): < 3.25 nM | TGI (LOX IMVI melanoma): > 26000 nM | GI50 (NCI/ADR-RES ovarian): 179 nM | TGI (NCI/ADR-RES ovarian): 1230 nM | GI50 (OVCAR-4 ovarian): < 3.25 nM | TGI (OVCAR-4 ovarian): > 29900 nM | GI50 (SNB-19 CNS): < 3.25 nM | TGI (SNB-19 CNS): > 32500 nM
